Results on 3 compounds are retold here after BindingDB's records for doi:10.1021/jm0009437 (Institut Curie, 2000).

The IC50 is the concentration that inhibits the measured activity by half.

SMILES strings stand for the structures.

This experiment has as its target T1, Gag-Pol polyprotein [588-1027]/[588-1147] (Human immunodeficiency virus 1, UniProt P04585).
T1 construct: 588-1027; 588-1147
Nature of the experiment: HIV-1 RT Assay. As to conditions: pH 8; 37 °C.
For `CCc1c(C)[nH]c(=O)c([N+](=O)[O-])c1Sc1cc(C)cc(C)c1` [4-[(3,5-dimethylphenyl)sulfanyl]-5-ethyl-6-methyl-3-nitro-1,2-dihydropyridin-2-one], it took 30 nM to reach half-maximal inhibition (IC50).

As for `CCc1c(C)nc(O)c(N)c1C(=O)c1cc(C)cc(C)c1` [3-amino-4-[(3,5-dimethylphenyl)carbonyl]-5-ethyl-6-methyl-1,2-dihydropyridin-2-one], the half-inhibitory concentration (IC50) came out at 100 nM.

Turning to `CCc1c(C)nc(O)c(N)c1Cc1cc(C)cc(C)c1` [3-amino-4-[(3,5-dimethylphenyl)methyl]-5-ethyl-6-methyl-1,2-dihydropyridin-2-one], it took 100 nM to reach half-maximal inhibition (IC50).
